From US20240376073A1 (Hoffmann-La Roche Inc., priority 2021, published 2024)
Structures can show the parent of a compound that is named as a salt. Where two headings read alike, the source gives them in different places.

Tested on: Acinetobacter baumannii ATCC17961
Assay: Antimicrobial susceptibility testing: 90% growth inhibitory concentration (IC90) determination
Assay type: cell-based
Conditions: Iso-Sensitest broth, growth by OD 600 nm over 16 h, 35±2° C.
In short: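 Twofold serial dilutions (e.g. 50 to 0.097 μM final) in Iso-Sensitest broth, inoculated at ~5×10^(5) CFU/ml, incubated at 35±2° C. OD600 read every 20 min over 16 h; IC90 derived from growth inhibition during logarithmic growth.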

[1] = Acinetobacter baumannii ATCC17961, read-out: ATCC 17961 IC90
[2] = Acinetobacter baumannii, ATCC17961, 16 h, read-out: ATCC 17961 IC90, Acinetobacter baumannii ATCC17961

Row | Compound | IC90 [1] | IC90 [2]
1 | Cc1cc(NC(=O)c2ncc(-c3ccc(OCC#N)c(F)c3F)n2C)ccc1C(=O)N1CCN(C(=O)C[N+](C)(C)C)CC1 [Example A8, [2-[4-[4-[[5-[4-(cyanomethoxy)-2,3-difluoro-phenyl]-1-methyl-imidazole-2-carbonyl]amino]-2-methyl-benzoyl]piperazin-1-yl]-2-oxo-ethyl]-trimethyl-ammonium; iodide] | 310 nM | –
2 | COc1ccc(-c2cnc(C(=O)Nc3ccc(C(=O)NCCCCC[N+](C)(C)C)c(Cl)c3)n2C)c(F)c1F [Example A2, 5-[[2-Chloro-4-[[5-(2,3-difluoro-4-methoxy-phenyl)-1-methyl-imidazole-2-carbonyl]amino]benzoyl]amino]pentyl-trimethyl-ammonium;formate] | 340 nM | –
3 | Cn1c(-c2ccc(OCC#N)c(F)c2F)cnc1C(=O)Nc1ccc(C(=O)N2CCN(C(=O)C[N+](C)(C)C)CC2)c(Cl)c1 [Example A7, [2-[4-[2-chloro-4-[[5-[4-(cyanomethoxy)-2,3-difluoro-phenyl]-1-methyl-imidazole-2-carbonyl]amino]benzoyl]piperazin-1-yl]-2-oxo-ethyl]-trimethyl-ammonium; formate; iodide] | – | 93 nM
4 | COc1ccc(-c2cnc(C(=O)Nc3ccc(C(=O)N4CCN(C(=O)N5C[C@@H]6C[N+](CCCN)(CC(=O)O)C[C@@H]6C5)CC4)c(Cl)c3)n2C)c(F)c1F (some centres unmarked) [Example C37, hydrochloride] | – | 340 nM
5 | Cc1cc(NC(=O)c2ncc(-c3ccc(OCC#N)c(F)c3F)n2C)ccc1C(=O)N[C@H]1C[C@@H](NCC[N+](C)(C)C)C1 [Example A19, 2-[[3-[[4-[[5-[4-(cyanomethoxy)-2,3-difluoro-phenyl]-1-methyl-imidazole-2-carbonyl]amino]-2-methyl-benzoyl]amino]cyclobutyl]amino]ethyl-trimethyl-ammonium formate] | 1200 nM | –
6 | Cc1cc(NC(=O)c2ncc(-c3ccc(OCC#N)c(F)c3F)n2C)ccc1C(=O)N[C@H]1C[C@@H](NC(=O)C[N+](C)(C)C)C1 [Example A18, [2-[[3-[[4-[5-[4-(cyanomethoxy)-2,3-difluoro-phenyl]-1-methyl-imidazole-2-carbonyl]amino]-2-methyl-benzoyl]amino]cyclobutyl]amino]-2-oxo-ethyl]-trimethyl-ammonium formate] | 240 nM | –
7 | COc1ccc(-c2cnc(C(=O)Nc3ccc(C(=O)NCc4cn(CCCO)[n+](C)c4)c(Cl)c3)n2C)c(F)c1F [Example A21, N-[3-chloro-4-[1-(3-hydroxypropyl)-2-methyl-pyrazol-2-ium-4-yl]methylcarbamoyl]phenyl]-5-(2,3-difluoro-4-methoxy-phenyl)-1-methyl-imidazole-2-carboxamide; formate] | 330 nM | –
8 | COc1ccc(-c2cnc(C(=O)Nc3ccc(C(=O)N4CCN(C(=O)[C@@H]5[C@@H](O)CC[N+]5(C)C)CC4)c(Cl)c3)n2C)c(F)c1F [Example B36, N-[3-chloro-4-[4-[(2S,3S)-3-hydroxy-1,1-dimethyl-pyrrolidin-1-ium-2-carbonyl]piperazine-1-carbonyl]phenyl]-5-(2,3-difluoro-4-methoxy-phenyl)-1-methyl-imidazole-2-carboxamide; formate] | – | 220 nM
9 | COc1ccc(-c2cnc(C(=O)Nc3ccc(C(=O)N4CCN(C(=O)NC5C[N+](C)(C)CC5O)CC4)c(Cl)c3)n2C)c(F)c1F (centres unmarked) [Example B39, 4-[2-chloro-4-[[5-(2,3-difluoro-4-methoxy-phenyl)-1-methyl-imidazole-2-carbonyl]amino]benzoyl]-N-(4-hydroxy-1,1-dimethyl-pyrrolidin-1-ium-3-yl)piperazine-1-carboxamide; formate] | – | 110 nM
10 | COc1ccc(-c2cnc(C(=O)Nc3ccc(C(=O)N4CCN(C(=O)[C@@H]5C[C@@H](O)C[N+]5(C)C)CC4)c(Cl)c3)n2C)c(Cl)c1F [Example B43, 5-(2-chloro-3-fluoro-4-methoxy-phenyl)-N-[3-chloro-4-[4-[(2S,4R)-4-hydroxy-1,1-dimethyl-pyrrolidin-1-ium-2-carbonyl]piperazine-1-carbonyl]phenyl]-1-methyl-imidazole-2-carboxamide; formate] | – | 120 nM
11 | COc1ccc(-c2cnc(C(=O)Nc3ccc(C(=O)N[C@H]4C[C@@H](NC(=O)C[N+](C)(C)C)C4)c(Cl)c3)n2C)c(F)c1F [Example A10, [2-[[3-[[2-Chloro-4-[[5-(2,3-difluoro-4-methoxy-phenyl)-1-methyl-imidazole-2-carbonyl]amino]benzoyl]amino]cyclobutyl]amino]-2-oxo-ethyl]-trimethyl-ammonium formate] | 84 nM | –
12 | COc1ccc(-c2cnc(C(=O)Nc3ccc(C(=O)N4CCN(C(=O)C5CC[N+](CC(=O)O)(CC6CNC6)CC5)CC4)c(Cl)c3)n2C)c(F)c1F (centres unmarked) [Example C33, 2-[1-(azetidin-3-ylmethyl)-4-[4-[2-chloro-4-[[5-(2,3-difluoro-4-methoxy-phenyl)-1-methyl-imidazole-2-carbonyl]amino]benzoyl]piperazine-1-carbonyl]piperidin-1-ium-1-yl]acetic acid; formate] | – | 490 nM

Now from value to compound, other results behind:

Row | IC90 [1] | Compound | IC90 [2]
13 | 69 nM | Cn1c(-c2ccc(OC(F)F)c(F)c2F)cnc1C(=O)Nc1ccc(C(=O)N2CCN(C(=O)C[N+]3(C)CCC(C(N)=O)C3)CC2)c(Cl)c1 (centres unmarked) [Example C26, N-[4-[4-[2-(3-carbamoyl-1-methyl-pyrrolidin-1-ium-1-yl)acet-yl]piperazine-1-carbonyl]-3-chloro-phenyl]-5-[4-(difluorometh-oxy)-2,3-difluoro-phenyl]-1-methyl-imidazole-2-carboxamide; formate] | –
14 | 410 nM | CCc1cc(NC(=O)c2ncc(-c3ccc(OC)c(F)c3F)n2C)ccc1C(=O)N1CCC(C(=O)NCCOCC[N+](C)(C)C)CC1 [Example B23, 2-(2-(1-(4-(5-(2,3-difluoro-4-methoxyphenyl)-1-methyl-1H-imidazole-2-carboxamido)-2-ethylbenzoyl)piperidine-4-carboxamido)ethoxy)-N,N,N-trimethylethan-1-aminium iodide] | –
15 | 99 nM | COc1ccc(-c2cnc(C(=O)Nc3ccc(C(=O)N4CCN(C(=O)C[N+](C)(C)CC(N)=O)CC4)c(Cl)c3)n2C)c(F)c1F [Example B7, (2-amino-2-oxo-ethyl)-[2-[4-[2-chloro-4-[[5-(2,3-difluoro-4-methoxy-phenyl)-1-methyl-imidazole-2-carbonyl]amino]benzoyl]piperazin-1-yl]-2-oxo-ethyl]-dimethyl-ammonium; formate] | –
16 | 91 nM | Cn1c(-c2ccc(OC(F)F)c(F)c2Cl)cnc1C(=O)Nc1ccc(C(=O)N2CCN(C(=O)[C@@H]3C[C@@H](O)C[N+]3(C)C)CC2)c(Cl)c1 [Example B53] | –
17 | 76 nM | COc1ccc(-c2cnc(C(=O)Nc3ccc(C(=O)NCc4c[n+](C)c(NC(=O)C[N+](C)(C)C)s4)c(Cl)c3)n2C)c(F)c1F [Example C23, [2-[[5-[[[2-chloro-4-[[5-(2,3-difluoro-4-methoxy-phenyl)-1-methyl-imidazole-2-carbonyl]amino]benzoyl]amino]methyl]-3-methyl-thiazol-3-ium-2-yl]amino]-2-oxo-ethyl]-trimethyl-ammonium;formate] | –
18 | 56 nM | Cn1c(-c2ccc(OCC#N)c(F)c2F)cnc1C(=O)Nc1ccc(C(=O)N2CCN(C(=O)CC[N+](C)(C)C)CC2)c(Cl)c1 [Example B9, [3-[4-[2-chloro-4-[[5-[4-(cyanomethoxy)-2,3-difluoro-phenyl]-1-methyl-imidazole-2-carbonyl]amino]benzoyl]piperazin-1-yl]-3-oxo-propyl]-trimethyl-ammonium; iodide] | –
19 | 220 nM | Cc1cc(NC(=O)c2ncc(-c3ccc(OCC#N)c(F)c3F)n2C)ccc1C(=O)N1CCN(C(=O)N[C@@H]2C[N+](C)(C)C[C@H]2O)CC1 [Example B28, (3R,4R)-3-(4-(4-(5-(4-(cyanomethoxy)-2,3-difluorophenyl)-1-methyl-1H-imidazole-2-carboxamido)-2-methylbenzoyl)piperazine-1-carboxamido)-4-hydroxy-1,1-dimethylpyrrolidin-1-ium formate] | –
20 | 200 nM | COc1ccc(-c2cnc(C(=O)Nc3ccc(C(=O)NCc4cnn(CC(=O)N5CC[N+](C)(C)CC5)c4)c(Cl)c3)n2C)c(F)c1F [Example B32, N-[3-chloro-4-[1-[2-(4,4-dimethylpiperazin-4-ium-1-yl)-2-oxo-ethyl]pyrazol-4-yl]methylcarbamoyl]phenyl]-5-(2,3-difluoro-4-methoxy-phenyl)-1-methyl-imidazole-2-carboxamide; formate] | –
21 | 43 nM | Cn1c(-c2ccc(OC(F)F)c(F)c2F)cnc1C(=O)Nc1ccc(C(=O)N2CCN(C(=O)C[N+]3(C)CCCC3)CC2)c(Cl)c1 [Example C25, N-[3-chloro-4-[4-[2-(1-methyl-pyrrolidin-1-ium-1-yl)acetyl]piper-azine-1-carbonyl]-phenyl]-5-[4-(difluorometh-oxy)-2,3-difluoro-phenyl]-1-methyl-imidazole-2-carboxamide; formate] | –
22 | 76 nM | COc1ccc(-c2cnc(C(=O)Nc3ccc(C(=O)N4CCN(C(=O)C[N+](C)(C)C)CC4)c(Cl)c3)n2C)c(F)c1F [Example B20, [2-[4-[2-chloro-4-[[5-(2,3-difluoro-4-methoxy-phenyl)-1-methyl-imidazole-2-carbonyl]amino]benzoyl]piperazin-1-yl]-2-oxo-ethyl]-trimethyl-ammonium; formate] | –
23 | 250 nM | Cc1cc(NC(=O)c2ncc(-c3ccc(OCC#N)c(F)c3F)n2C)ccc1C(=O)N1CCN(C(=O)N[C@H]2C[N+](C)(C)C[C@@H]2O)CC1 [Example B29, (3S,4S)-3-(4-(4-(5-(4-(cyanomethoxy)-2,3-difluorophenyl)-1-methyl-1H-imidazole-2-carboxamido)-2-methylbenzoyl)piperazine-1-carboxamido)-4-hydroxy-1,1-dimethylpyrrolidin-1-ium formate] | –
